Experiments:
Test in all cases: relative viability (nuclei count vs DMSO), 5 days (fraction); higher = more cells survive
kb NB 142-70 + Lapatinib = compound: C1CSC2=C(C(=O)N1)SC3=C2C=C(C=C3)O [kb NB 142-70] + CS(=O)(=O)CCNCc1ccc(-c2ccc3ncnc(Nc4ccc(OCc5cccc(F)c5)c(Cl)c4)c3c2)o1 [Lapatinib] (partner 2 µM)
In short: (§1)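 One day after seeding in 1536-well plates, lung cancer cell lines were dosed by pin tool. Dosing was either single-drug or a fixed anchor-drug dose plus five library-drug doses (not always all listed) in √10 steps. After 5 days, nuclei were stained in one fix-and-stain step and counted on 4× images, and relative viability is the nuclei count of treated wells over that of vehicle wells, given as the median of duplicate plates.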

[1] = compound: C1CSC2=C(C(=O)N1)SC3=C2C=C(C=C3)O [kb NB 142-70] + Nc1nc2[nH]cc(CCc3ccc(C(=O)N[C@@H](CCC(=O)O)C(=O)O)cc3)c2c(=O)[nH]1 [Pemetrexed] (partner 0.2 µM)
In short: as §1

[2] = compound: C1CSC2=C(C(=O)N1)SC3=C2C=C(C=C3)O [kb NB 142-70] + Nc1ncn([C@H]2C[C@H](O)[C@@H](CO)O2)c(=O)n1 [Decitabine] (partner 2 µM)
In short: as §1

[3] = compound: NCC(=O)Nc1ccc(-n2nc(C(F)(F)F)cc2-c2ccc3c(ccc4ccccc43)c2)cc1 + O=C(CCCCCCC(=O)Nc1ccccc1)NO [Vorinostat] (partner 1 µM)
In short: as §1

[4] = compound: NCC(=O)Nc1ccc(-n2nc(C(F)(F)F)cc2-c2ccc3c(ccc4ccccc43)c2)cc1 + O=C(c1cc(Cc2n[nH]c(=O)c3ccccc23)ccc1F)N1CCN(C(=O)C2CC2)CC1 [Olaparib] (partner 8 µM)
In short: as §1

For UMC-11, the relative viability (kb NB 142-70 + Lapatinib; first compound 0.1 µM) was 0.964, the relative viability (kb NB 142-70 + Lapatinib; first compound 1 µM) was 0.836 and the relative viability (kb NB 142-70 + Lapatinib; first compound 3.162 µM) was 0.535. For the same cell line, the relative viability ([1]; first compound 0.1 µM) was 0.861, the relative viability ([1]; first compound 1 µM) was 0.779 and the relative viability ([1]; first compound 3.162 µM) was 0.549. The relative viability ([2]; first compound 0.1 µM) was 0.547, the relative viability ([2]; first compound 1 µM) was 0.639 and the relative viability ([2]; first compound 3.162 µM) was 0.378. For the same cell line, the relative viability ([3]; first compound 0.02 µM) was 0.337, the relative viability ([3]; first compound 0.06325 µM) was 0.434 and the relative viability ([3]; first compound 0.2 µM) was 0.511. The relative viability ([3]; first compound 0.6325 µM) was 0.355, the relative viability ([3]; first compound 2 µM) was 0.383 and the relative viability ([4]; first compound 0.02 µM) was 0.307. It also gave a relative viability ([4]; first compound 0.06325 µM) of 0.355, a relative viability ([4]; first compound 0.2 µM) of 0.537 and a relative viability ([4]; first compound 0.6325 µM) of 0.354. The relative viability ([4]; first compound 2 µM) was 0.377.
